Assay results reported in US20050032713A1, “Platelet-activating factor antagonists as analgesic, anti-inflammatory, uterine contraction inhibiting, and anti-tumor agents” (priority 2002, published 2005).
Entries after “also recorded” stand apart in the source; their conditions may differ. *1 amine or outer side, *2 acyl side, *3 side chain or, on linkers, in order; H or OH if unused. Where a SMILES comes first, the peptide text is derived from it. Bridges are numbered along the chain shown (N, C = ends). Roman numbers before positions name the chains, in order. [ ]: non-standard residue; d: D form. Actinocin(9to1) = Cc1c2oc3c(C)ccc(C(=O)[*:1])c3nc-2c(C(=O)[*:2])c(N)c1=O; NMeV = CN[C@H](C(=O)O)C(C)C; Sar = CNCC(=O)O

Columns and labels:
Type in all cases: cell-based, rat
[1] = system: astrocyte-enriched cortical cell cultures; experiment: Effect of PAF antagonists on mc-PAF-, lyso-PAF- and AA-induced PGE2 release from astrocytes; conditions: for mc-PAF-induced PGE2 release: antagonist added 30 min before mc-PAF (1 μM), 30 min, BN 50730 0.1-100 μM, BN 52021 and CV 6209 1-50 μM; for PGE2 release, antagonist administered alone: no mc-PAF
Method: (§1) All experimental protocols were approved by the Massachusetts Institute of Technology institutional review committee and meet the guidelines of the National Institutes of Health. Dissociated astrocytes were cultured from cortices of postnatal day 1-2 rat pups (as described by K. D. McCarthy, et al., Preparation of separate astroglial and oligodendroglial cell cultures from rat cerebral tissue, J. Cell Biol. 85 (1980) 890-902, with minor modifications R. K. K. Lee, et al., Metabolic glutamate receptors increase amyloid precursor protein processing in astrocytes: inhibition by cyclic AMP, J. Neurochem. 68 (1997) 1830-1835.) In brief, cells from dissociated cortices were plated onto poly-L-lysine coated 35- or 100 mm culture dishes. The initial culture media, minimal essential medium (MEM, Gibco-Life Technologies; Rockville, Md.) containing 15% horse serum (BioWhittaker; Walkersville, Md.), were aspirated 2-5 h after plating to remove unattached cells and debris, and replaced with MEM containing 5% fetal bovine serum (FBS, BioWhittaker; Walkersville, Md.). Half the medium was replaced with MEM/5% FBS twice weekly. Astrocytes were kept at 37° C. in a humidified 5% CO2/95% air incubator for 9-15 days, by which time the cultures were confluent and could be used for experiments.
(§2) Mc-PAF (Biomol; Plymouth Meeting, PA) was dissolved in methanol at a stock concentration of 10 mM. PAF-16, PAF-18, lyso-PAF, AA (Cayman Chemicals), lyso-PC and PC (Sigma) were dissolved in ethanol at stock concentrations of 10 mM. All stock solutions of lipids were stored at −80° C. and were used within 6 weeks of reconstitution. BN 52021 and CV 6209 (Biomol) were dissolved in ethanol. These PAF antagonists were stored at −20° C. in stock concentrations of 100 mM. BN 50730 (Biomeasure; Milford, Mass.) was dissolved in 45% hydroxy-B-cyclodextrin (HBC). All agents were diluted in warned serum-free medium prior to cell stimulation. Equal amounts of vehicle was added to control cells.
(§3) Cells used for all experiments were established in vitro 9-15 days prior to use in experiments and were over 95% confluent. Serum-containing media were changed every 3-4 days. Cells were serum-deprived 24 hours prior to experimental treatments. Where treatment with PAF antagonists is indicated, these compounds were added 30 minutes prior to the addition of other agents.
(§4) PGE2 levels were measured by ELISA according to manufacturer's instructions (Cayman Chemicals, Ann Arbor, Mich.). Since the amount of PGE2 in fresh medium was negligible, (J. Luo, et al., Transforming growth factor B1 regulates the expression of cyclooxygenase in cultured cortical astrocytes and neurons, J. Neurochem. 71 (1998) 526-534), direct assays of the PGE2 concentration in cell-conditioned medium was used as a measurement of PGE2 secretion by cultured cells. Results were derived from at least 3 separate experiments, assayed in duplicate or triplicate (n=6-8). The reliable detection limit of this assay (i.e. sensitivity) averaged 14+/−6 pg of PGE2.

[2] = system: astrocyte-enriched cortical cell cultures; experiment: PGE2 release (ELISA) from astrocyte-enriched cortical cell cultures exposed to PAF analogs, related lipids or AA; conditions: for PGE2 release into the conditioned media: various concentrations; for concentration giving peak PGE2 release: higher and lower concentrations elicited less release
Method: as §1, §2, §3, §4

[3] = system: primary cortical astrocytes; experiment: Effect of COX inhibitors on mc-PAF-induced PGE2 release from primary astrocytes (Example 3)
Method: Mc-PAF (Cayman Chemical, Ann Arbor, Mich.) was dissolved in ethanol at a stock concentration of 10 mM. Indomethacin, piroxicam, NS-398 (Biomol; Plymouth Meeting, Mass.), and SC-560 (Cayman Chemical) were dissolved in 45% hydroxy-β-cyclodextrin (HBC; Sigma, St. Louis, Mo.). Cells were serum-deprived for 24 hrs prior to experimental treatments to induce quiescence. Where treatment with inhibitors is indicated, these compounds were added 30 min prior to the addition of mc-PAF.
Direct assay of the PGE2 concentration in cell-conditioned medium was used as an index of PGE2 secretion by primary astrocytes. PGE2 levels were measured by ELISA according to manufacturer's instructions (Cayman Chemicals, Ann Arbor, Mich.), as described.
Results were derived from at least 3 separate experiments, assayed in duplicate or triplicate (n=6−8). Data were expressed as means+/−SEMs. Statistical analyses were performed using ANOVAs for comparisons between groups, followed by Fischer's PLSD post hoc comparisons by means contrast. p values <0.05 were considered statistically significant.

[4] = various inhibitor concentrations (indomethacin 1, 10, and 50 μM), 30 min prior to mc-PAF (0.1 uM) for 30 min
[5] = pre-treatment, actinomycin D 5 μg/ml, cyclohexamide 10 μg/ml, data not shown
[6] = 10, 1, 0.1, and 0.01 μM, 30 min

## CCCCCCCCCCCCCCCCCCNC(=O)OCC(COC(=O)N(Cc1cccc[n+]1CC)C(C)=O)OC (stereo not drawn) [CV 6209]
[1]
  mc-PAF-induced PGE2 release: no significant effect; also recorded: do not attenuate
  PGE2 release, antagonist administered alone: PGE2 release was increased
[1]; listed as CV-6209
  mc-PAF-induced PGE2 release: did not significantly influence
  PGE2 release, antagonist administered alone: increased PGE2 release
[1]; antagonist added 30 min prior
  AA-induced PGE2 release: had no effect
  lyso-PAF-induced PGE2 release: had no effect

## CCCCC/C=C\C/C=C\C/C=C\C/C=C\CCCC(=O)O [AA, arachidonic acid]
[2]; AA 0.01-10 μM, 30 minutes
  PGE2 release: increased PGE2 release
[2]; high AA concentration 10 μM with mc-PAF, 30 min
  PGE2 release on co-administration with mc-PAF: no synergism
[2]; low AA concentration 0.01 μM with mc-PAF (0.1, 1 or 10 μM), 30 min
  PGE2 release on co-administration with mc-PAF: additive increase

## COc1ccc(-n2nc(C(F)(F)F)cc2-c2ccc(Cl)cc2)cc1 [SC-560]
[3]; [4]
  mc-PAF-induced PGE2 release: did not significantly influence; also recorded: did not significantly do so; also recorded: minimal influence

## Cc1c2oc3c(C)ccc(C(=O)N[C@@H]4C(=O)N[C@H](C(C)C)C(=O)N5CCC[C@H]5C(=O)N(C)CC(=O)N(C)[C@@H](C(C)C)C(=O)O[C@@H]4C)c3nc-2c(C(=O)N[C@@H]2C(=O)N[C@H](C(C)C)C(=O)N3CCC[C@H]3C(=O)N(C)CC(=O)N(C)[C@@H](C(C)C)C(=O)O[C@@H]2C)c(N)c1=O [actinomycin D] (I: T[dV]P[Sar][NMeV] / II: T[dV]P[Sar][NMeV]; ester I:1-I:C, II:1-II:C; linker I:N-II:N via Actinocin(9to1))
[3]; [5]
  mc-PAF-induced PGE2 release: had no effect

## phosphatidylcholine [PC]
[2]; [6]
  PGE2 release: had no effect

## CS(=O)(=O)Nc1ccc([N+](=O)[O-])cc1OC1CCCCC1 [NS-398]
[3]; NS-398 highest concentrations, 10 and 50 μM
  basal PGE2 release: prevented basal PGE2 release
[3]; [4]
  mc-PAF-induced PGE2 release: completely abolished; also recorded: completely blocked

## CN1C(C(=O)Nc2ccccn2)=C(O)c2ccccc2S1(=O)=O [piroxicam]
[3]; piroxicam 50 μM, effect not statistically significant
  mc-PAF-induced PGE2 release: attenuated some of this PGE2 release
[3]; piroxicam 1 or 10 μM, 30 min prior to mc-PAF (0.1 uM)
  mc-PAF-induced PGE2 release: had no effect
[3]; [4]
  mc-PAF-induced PGE2 release: did not significantly do so; also recorded: minimal influence

## CCCCCCCCCCCCCCCCCCOC[C@H](COP(=O)([O-])OCC[N+](C)(C)C)OC(C)=O [PAF-18]
[2]; 30 min, 37° C.
  PGE2 release into the conditioned media: concentration-dependent increases
[2]; 30 min
  concentration giving peak PGE2 release: 0.1 µM

## CCCCCCCCCCCCCCCCOC[C@@H](O)COP(=O)([O-])OCC[N+](C)(C)C [lyso-PAF]
[2]; 30 min, 37° C.
  concentration at which PGE2 release was significantly increased: 10 µM
  PGE2 release into the conditioned media: concentration-dependent increases

## lyso-phosphatidylcholine [lyso-PC]
[2]; [6]
  PGE2 release: had no effect

## CCCCCCCCCCCCCCCCOC[C@H](COP(=O)([O-])OCC[N+](C)(C)C)OC(C)=O [PAF-16]
[2]; 30 min, 37° C.
  PGE2 release into the conditioned media: concentration-dependent increases
[2]; 30 min
  concentration giving peak PGE2 release: 0.1 µM

## COc1ccc2c(c1)c(CC(=O)O)c(C)n2C(=O)c1ccc(Cl)cc1 [indomethacin]
[3]; indomethacin 1, 10, and 50 μM
  basal PGE2 release: without affecting basal PGE2 release
[3]; [4]
  mc-PAF-induced PGE2 release: attenuated; also recorded: completely blocked

## C[C@@H]1C[C@@H]([C@H](O)CC2CC(=O)NC(=O)C2)C(=O)[C@@H](C)C1 [cyclohexamide]
[3]; [5]
  mc-PAF-induced PGE2 release: had no effect
